Our source for the Kd values is ChEMBL document CHEMBL3991601, “The target landscape of clinical kinase drugs” (Science, 2017).

Experiment [1] deals with Mitogen-activated protein kinase kinase kinase 1 (Homo sapiens, UniProt Q13233).
Experiment [2] deals with Tyrosine-protein kinase FRK (Homo sapiens, UniProt P42685).
The target of experiment [3] is Tyrosine-protein kinase HCK (Homo sapiens, UniProt P08631).
Experiment [4] has as its target Proto-oncogene tyrosine-protein kinase Src (Homo sapiens, UniProt P12931).
The target in the next experiment is T1, Ephrin type-B receptor 3 (Homo sapiens, UniProt P54753).
T1 sequence (P54753 whole entry): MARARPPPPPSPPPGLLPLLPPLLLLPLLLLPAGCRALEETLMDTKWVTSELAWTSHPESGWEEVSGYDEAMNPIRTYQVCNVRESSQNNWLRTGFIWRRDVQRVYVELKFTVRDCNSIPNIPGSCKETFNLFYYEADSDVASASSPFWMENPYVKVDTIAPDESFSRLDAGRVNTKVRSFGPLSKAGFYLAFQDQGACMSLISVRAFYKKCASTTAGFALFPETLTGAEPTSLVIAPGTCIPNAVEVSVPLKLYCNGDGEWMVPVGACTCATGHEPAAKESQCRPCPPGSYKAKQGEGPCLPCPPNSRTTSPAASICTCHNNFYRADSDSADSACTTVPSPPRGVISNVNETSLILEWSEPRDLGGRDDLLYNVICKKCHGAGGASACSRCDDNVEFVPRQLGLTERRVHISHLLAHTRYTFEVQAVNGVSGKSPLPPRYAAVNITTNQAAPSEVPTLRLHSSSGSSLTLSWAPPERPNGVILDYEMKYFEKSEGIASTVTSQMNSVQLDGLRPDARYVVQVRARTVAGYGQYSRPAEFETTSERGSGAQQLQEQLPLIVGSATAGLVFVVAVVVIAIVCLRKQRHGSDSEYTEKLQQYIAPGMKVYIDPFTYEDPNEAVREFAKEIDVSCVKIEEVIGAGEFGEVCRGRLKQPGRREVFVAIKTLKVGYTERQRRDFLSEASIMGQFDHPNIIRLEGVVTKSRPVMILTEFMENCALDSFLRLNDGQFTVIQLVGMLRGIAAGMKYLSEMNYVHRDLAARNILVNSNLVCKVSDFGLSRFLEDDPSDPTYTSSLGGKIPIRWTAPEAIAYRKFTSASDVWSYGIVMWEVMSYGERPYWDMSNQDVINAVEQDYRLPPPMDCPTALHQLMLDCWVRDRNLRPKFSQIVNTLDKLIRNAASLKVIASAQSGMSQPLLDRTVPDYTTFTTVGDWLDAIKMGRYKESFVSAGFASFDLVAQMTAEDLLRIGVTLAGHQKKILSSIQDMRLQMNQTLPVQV

Experiment [5] has as its target Ribosomal protein S6 kinase alpha-5 (Homo sapiens, UniProt O75582).
The target in experiment [6] is Casein kinase I isoform delta (Homo sapiens, UniProt P48730).
Chain of Casein kinase I isoform delta (P48730 whole entry, canonical isoform): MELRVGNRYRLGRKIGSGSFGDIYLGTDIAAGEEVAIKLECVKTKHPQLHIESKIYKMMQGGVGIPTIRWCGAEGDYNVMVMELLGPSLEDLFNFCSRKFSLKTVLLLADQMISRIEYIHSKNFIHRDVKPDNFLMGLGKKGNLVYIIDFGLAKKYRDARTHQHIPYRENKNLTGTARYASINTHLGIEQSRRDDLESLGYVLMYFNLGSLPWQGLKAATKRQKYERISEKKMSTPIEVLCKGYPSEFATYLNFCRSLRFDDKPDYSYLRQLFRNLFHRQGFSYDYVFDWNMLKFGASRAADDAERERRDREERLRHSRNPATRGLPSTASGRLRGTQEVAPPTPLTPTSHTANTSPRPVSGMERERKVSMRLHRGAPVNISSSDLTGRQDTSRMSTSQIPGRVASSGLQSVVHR
The target in the next experiment is T2, Scaffold protein ILK (Homo sapiens, UniProt Q13418).
T2 sequence (Q13418 whole entry): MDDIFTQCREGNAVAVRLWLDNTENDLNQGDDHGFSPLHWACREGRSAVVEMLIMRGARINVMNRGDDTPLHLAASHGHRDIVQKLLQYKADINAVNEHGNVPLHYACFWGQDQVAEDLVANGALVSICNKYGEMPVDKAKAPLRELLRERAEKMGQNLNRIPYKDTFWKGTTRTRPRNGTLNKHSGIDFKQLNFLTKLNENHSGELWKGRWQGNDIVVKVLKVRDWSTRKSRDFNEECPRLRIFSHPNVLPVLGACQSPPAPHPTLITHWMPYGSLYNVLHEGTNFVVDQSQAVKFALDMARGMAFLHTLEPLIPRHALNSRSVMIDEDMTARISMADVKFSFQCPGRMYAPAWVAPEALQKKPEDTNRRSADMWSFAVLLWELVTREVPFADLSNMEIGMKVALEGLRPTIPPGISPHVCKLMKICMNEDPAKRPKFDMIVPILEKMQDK

A further experiment concerns the target T3, Activin receptor type-1B (Homo sapiens, UniProt P36896).
T3 sequence (P36896 whole entry): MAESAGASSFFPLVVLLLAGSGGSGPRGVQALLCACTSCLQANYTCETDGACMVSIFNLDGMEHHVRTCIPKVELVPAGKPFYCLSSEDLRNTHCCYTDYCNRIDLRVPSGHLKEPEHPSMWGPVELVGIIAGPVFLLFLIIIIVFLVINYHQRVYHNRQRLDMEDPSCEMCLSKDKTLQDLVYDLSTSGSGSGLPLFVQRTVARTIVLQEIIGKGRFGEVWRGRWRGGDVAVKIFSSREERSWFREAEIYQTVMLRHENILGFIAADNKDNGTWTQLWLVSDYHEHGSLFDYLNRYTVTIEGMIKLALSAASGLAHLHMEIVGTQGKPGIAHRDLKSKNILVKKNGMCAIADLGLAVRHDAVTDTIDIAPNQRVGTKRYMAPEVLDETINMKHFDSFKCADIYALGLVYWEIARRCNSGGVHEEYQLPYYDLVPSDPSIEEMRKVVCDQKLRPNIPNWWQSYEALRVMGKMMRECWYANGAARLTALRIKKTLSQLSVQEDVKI

The structures appear in SMILES notation. Active and inactive are the calls of the source. Rule as the data show it, for most assays here: actives have a measured Kd and inactives only a lower limit.
Also: in the data inactive means no Kd found up to 30 µM.

Chain of Proto-oncogene tyrosine-protein kinase Src (P12931 2-536 limits assumed): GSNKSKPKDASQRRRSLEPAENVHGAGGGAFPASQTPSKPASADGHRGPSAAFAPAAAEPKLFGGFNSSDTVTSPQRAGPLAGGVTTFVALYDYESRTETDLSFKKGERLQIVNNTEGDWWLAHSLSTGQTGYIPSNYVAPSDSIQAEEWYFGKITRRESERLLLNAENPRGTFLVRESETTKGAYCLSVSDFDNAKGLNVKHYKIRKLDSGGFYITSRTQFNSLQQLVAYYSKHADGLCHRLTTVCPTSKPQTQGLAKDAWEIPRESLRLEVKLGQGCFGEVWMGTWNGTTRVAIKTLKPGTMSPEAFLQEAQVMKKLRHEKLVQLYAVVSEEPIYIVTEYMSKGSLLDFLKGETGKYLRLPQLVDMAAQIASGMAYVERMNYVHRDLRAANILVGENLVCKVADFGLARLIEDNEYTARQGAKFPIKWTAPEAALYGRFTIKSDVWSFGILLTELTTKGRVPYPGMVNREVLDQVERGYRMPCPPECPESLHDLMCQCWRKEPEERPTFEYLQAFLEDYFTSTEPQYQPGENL
Chain of Ribosomal protein S6 kinase alpha-5 (O75582 whole entry, canonical isoform): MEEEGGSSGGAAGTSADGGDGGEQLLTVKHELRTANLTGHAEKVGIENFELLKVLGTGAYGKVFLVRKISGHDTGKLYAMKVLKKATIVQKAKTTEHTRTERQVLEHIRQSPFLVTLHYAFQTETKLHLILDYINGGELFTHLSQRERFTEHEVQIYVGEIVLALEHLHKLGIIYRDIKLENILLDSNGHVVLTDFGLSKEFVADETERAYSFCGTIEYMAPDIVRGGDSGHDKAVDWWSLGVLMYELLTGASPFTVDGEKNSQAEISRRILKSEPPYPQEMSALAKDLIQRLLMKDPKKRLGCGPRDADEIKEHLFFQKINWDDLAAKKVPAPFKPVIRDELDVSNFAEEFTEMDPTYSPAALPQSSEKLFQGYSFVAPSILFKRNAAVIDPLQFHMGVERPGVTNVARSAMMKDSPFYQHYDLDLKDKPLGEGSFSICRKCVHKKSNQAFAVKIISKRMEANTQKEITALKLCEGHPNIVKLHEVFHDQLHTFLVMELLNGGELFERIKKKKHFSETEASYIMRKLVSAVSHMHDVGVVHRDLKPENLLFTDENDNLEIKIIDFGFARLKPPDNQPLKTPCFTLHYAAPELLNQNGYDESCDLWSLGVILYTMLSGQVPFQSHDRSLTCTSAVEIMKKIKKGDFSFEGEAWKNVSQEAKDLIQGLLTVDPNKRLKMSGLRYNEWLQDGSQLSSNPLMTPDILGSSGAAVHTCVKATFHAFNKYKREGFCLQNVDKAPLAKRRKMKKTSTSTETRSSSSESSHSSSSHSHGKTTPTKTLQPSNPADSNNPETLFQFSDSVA
Chain of Tyrosine-protein kinase HCK (P08631 whole entry): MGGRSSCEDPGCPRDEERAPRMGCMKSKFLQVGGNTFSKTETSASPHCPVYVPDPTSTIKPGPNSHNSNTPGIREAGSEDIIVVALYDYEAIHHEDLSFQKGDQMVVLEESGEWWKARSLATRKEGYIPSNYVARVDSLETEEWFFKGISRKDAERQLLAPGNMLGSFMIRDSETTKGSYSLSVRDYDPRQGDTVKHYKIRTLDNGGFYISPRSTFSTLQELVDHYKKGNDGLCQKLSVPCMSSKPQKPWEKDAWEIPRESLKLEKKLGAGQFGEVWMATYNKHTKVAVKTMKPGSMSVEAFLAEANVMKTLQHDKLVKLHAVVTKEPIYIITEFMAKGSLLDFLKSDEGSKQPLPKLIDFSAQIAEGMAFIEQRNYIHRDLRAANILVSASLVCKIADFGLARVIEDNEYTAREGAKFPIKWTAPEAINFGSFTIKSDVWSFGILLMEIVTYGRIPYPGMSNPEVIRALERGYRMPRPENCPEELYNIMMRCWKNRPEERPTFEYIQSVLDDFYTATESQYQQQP
Chain of Mitogen-activated protein kinase kinase kinase 1 (Q13233 whole entry): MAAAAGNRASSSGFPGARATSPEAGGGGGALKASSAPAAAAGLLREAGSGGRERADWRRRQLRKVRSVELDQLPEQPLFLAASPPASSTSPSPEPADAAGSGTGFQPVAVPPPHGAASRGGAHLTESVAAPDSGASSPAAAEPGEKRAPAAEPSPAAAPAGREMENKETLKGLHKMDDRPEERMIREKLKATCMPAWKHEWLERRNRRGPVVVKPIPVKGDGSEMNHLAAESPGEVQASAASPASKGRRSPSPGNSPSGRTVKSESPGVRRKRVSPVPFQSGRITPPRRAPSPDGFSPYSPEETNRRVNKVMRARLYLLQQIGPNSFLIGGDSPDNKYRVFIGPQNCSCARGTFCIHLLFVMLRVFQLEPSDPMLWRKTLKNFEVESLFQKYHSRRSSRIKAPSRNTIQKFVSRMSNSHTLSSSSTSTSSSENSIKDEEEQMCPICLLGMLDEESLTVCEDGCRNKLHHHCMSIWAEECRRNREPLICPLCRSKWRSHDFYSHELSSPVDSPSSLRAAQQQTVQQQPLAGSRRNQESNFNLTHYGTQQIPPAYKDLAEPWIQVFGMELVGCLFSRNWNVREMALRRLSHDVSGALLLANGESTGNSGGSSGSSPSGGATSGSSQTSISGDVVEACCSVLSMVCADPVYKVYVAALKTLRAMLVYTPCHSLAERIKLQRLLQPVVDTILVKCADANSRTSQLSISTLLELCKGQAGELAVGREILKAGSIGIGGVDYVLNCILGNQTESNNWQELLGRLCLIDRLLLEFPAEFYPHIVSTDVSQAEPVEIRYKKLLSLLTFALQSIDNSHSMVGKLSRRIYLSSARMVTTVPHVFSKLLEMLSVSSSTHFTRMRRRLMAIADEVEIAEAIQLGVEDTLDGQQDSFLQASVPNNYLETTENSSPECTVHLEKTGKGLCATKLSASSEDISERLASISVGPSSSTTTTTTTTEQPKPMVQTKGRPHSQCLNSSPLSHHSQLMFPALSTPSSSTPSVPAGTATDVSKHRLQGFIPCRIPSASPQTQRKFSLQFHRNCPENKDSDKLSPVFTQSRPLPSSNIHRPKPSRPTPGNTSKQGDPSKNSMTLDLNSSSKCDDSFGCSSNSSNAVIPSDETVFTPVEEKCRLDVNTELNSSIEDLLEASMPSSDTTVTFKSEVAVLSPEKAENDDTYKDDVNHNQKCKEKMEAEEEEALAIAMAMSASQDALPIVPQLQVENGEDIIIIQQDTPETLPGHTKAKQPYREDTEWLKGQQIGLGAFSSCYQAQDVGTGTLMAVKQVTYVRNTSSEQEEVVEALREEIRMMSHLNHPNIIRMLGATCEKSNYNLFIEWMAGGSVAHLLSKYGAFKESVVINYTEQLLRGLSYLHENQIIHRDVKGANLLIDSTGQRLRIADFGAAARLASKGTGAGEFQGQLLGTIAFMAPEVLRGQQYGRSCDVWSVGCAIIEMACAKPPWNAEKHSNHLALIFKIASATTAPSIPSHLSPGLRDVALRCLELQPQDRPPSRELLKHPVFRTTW
Chain of Tyrosine-protein kinase FRK (P42685 whole entry): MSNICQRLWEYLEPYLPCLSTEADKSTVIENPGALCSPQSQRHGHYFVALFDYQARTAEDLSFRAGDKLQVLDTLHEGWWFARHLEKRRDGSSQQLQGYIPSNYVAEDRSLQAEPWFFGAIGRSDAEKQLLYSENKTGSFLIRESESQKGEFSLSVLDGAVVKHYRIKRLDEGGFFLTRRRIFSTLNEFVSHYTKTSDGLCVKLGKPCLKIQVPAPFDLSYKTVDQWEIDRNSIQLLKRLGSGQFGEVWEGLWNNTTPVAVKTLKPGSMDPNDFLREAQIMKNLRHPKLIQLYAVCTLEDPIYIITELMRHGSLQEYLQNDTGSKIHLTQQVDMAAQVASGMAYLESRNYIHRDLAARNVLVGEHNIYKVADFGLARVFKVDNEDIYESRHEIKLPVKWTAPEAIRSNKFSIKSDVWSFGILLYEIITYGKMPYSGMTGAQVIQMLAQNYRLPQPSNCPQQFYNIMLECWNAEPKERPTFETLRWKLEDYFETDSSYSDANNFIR

With `CC(=O)c1cnc2ccc(-c3cc(Cl)c(O)c(Cl)c3)nc2c1N[C@H]1CC[C@H](CN(C)C)CC1`, the Kd in experiment [1] was > 30 µM (inactive); in experiment [2], > 30 µM (inactive); in experiment [3], 0.116 µM (active); in [4], > 30 µM (inactive); on Ephrin type-B receptor 3, > 30 µM (inactive); in [5], 0.298 µM (active).

Turning to `C=CC(=O)N1CCC[C@H](n2c(=O)n(-c3ccc(Oc4ccccc4)cc3)c3c(N)ncnc32)C1`, the Kd in experiment [1] was > 30 µM (inactive); in experiment [2] it was > 30 µM (inactive); in experiment [6] it was > 30 µM (inactive); in experiment [3] it was 0.006 µM; in experiment [4] it was 0.004 µM; at Ephrin type-B receptor 3, > 30 µM (inactive). For the same compound, the Kd (at Scaffold protein ILK; on Activin receptor type-1B; in experiment [5]) was > 30 µM (inactive) each time.

`Nc1ncnc2c1c(-c1cccc(OCc3ccccc3)c1)cn2[C@H]1C[C@@H](CN2CCC2)C1` [AEW-541]: the Kd in experiment [1] is > 30 µM (inactive); in experiment [2], > 30 µM (inactive); in [6], > 30 µM (inactive); in experiment [3], 0.623 µM (active); in [4], 3.55 µM (active); at Ephrin type-B receptor 3 it was > 30 µM (inactive). Moreover, the Kd (at Scaffold protein ILK; on Activin receptor type-1B; in experiment [5]) was > 30 µM (inactive) throughout.

With `Cc1cc(C(=O)NOCCO)c(Nc2ccc(I)cc2F)n(C)c1=O` [AZD-8330], the Kd (in [1]; in [2]; in [6]; in experiment [3]; in [4]; at Ephrin type-B receptor 3) was > 30 µM (inactive) each time. The Kd (on Scaffold protein ILK; on Activin receptor type-1B; in experiment [5]) was > 30 µM (inactive) in each case.

`COc1cc2ncnc(Oc3cccc(NC(=O)Nc4cc(C(C)(C)C(F)(F)F)on4)c3)c2cc1OC` [CEP-32496]: the Kd in experiment [1] was > 30 µM (inactive); in experiment [2], 0.85 µM; in experiment [6] it was > 30 µM (inactive); in [3], > 30 µM (inactive); in experiment [4], > 30 µM (inactive); on Ephrin type-B receptor 3 it was > 30 µM (inactive). For the same compound, the Kd (on Scaffold protein ILK; at Activin receptor type-1B; in [5]) was > 30 µM (inactive) throughout.

Turning to `COCC(=O)NC/C=C/c1ccc2ncnc(Nc3ccc(Oc4ccc(C)nc4)c(C)c3)c2c1` [CP-724714], the Kd (in [1]; in experiment [2]; in experiment [6]; in experiment [3]; in experiment [4]; at Ephrin type-B receptor 3) was > 30 µM (inactive) each time. The Kd (at Scaffold protein ILK; on Activin receptor type-1B; in experiment [5]) was > 30 µM (inactive) in each case.

For `Cn1cc(C2=C(c3cn(C4CCN(Cc5ccccn5)CC4)c4ccccc34)C(=O)NC2=O)c2ccccc21` [ENZASTAURIN], the Kd on Scaffold protein ILK was > 30 µM (inactive).

On to `Cc1nc2cc(-n3ncc(C(=O)c4cc5ccccc5[nH]4)c3N)ccc2[nH]1` [FGFR INHIBITOR DEBIO 1347], for which the Kd (in experiment [1]; in experiment [2]; in experiment [6]; in experiment [3]; in experiment [4]; on Ephrin type-B receptor 3) was > 30 µM (inactive) each time. The Kd (on Scaffold protein ILK; at Activin receptor type-1B; in experiment [5]) was > 30 µM (inactive) throughout.

Consider `COc1ccc(S(=O)(=O)N(C(C)=O)c2ccccc2/C=C/c2cc[n+]([O-])cc2)cc1` [HMN-214], for which the Kd (in experiment [1]; in experiment [2]; in experiment [6]; in [3]; in experiment [4]; on Ephrin type-B receptor 3) was > 30 µM (inactive) in each case. Moreover, the Kd (at Scaffold protein ILK; on Activin receptor type-1B; in [5]) was > 30 µM (inactive) in each case.

With `NC1(c2ccc(-c3nc4ccn5c(=O)[nH]nc5c4cc3-c3ccccc3)cc2)CCC1` [MK-2206], the Kd (in experiment [1]; in experiment [2]; in experiment [6]; in [3]; in [4]; at Ephrin type-B receptor 3) was > 30 µM (inactive) in each case. In addition, the Kd (on Scaffold protein ILK; at Activin receptor type-1B; in experiment [5]) was > 30 µM (inactive) throughout.

On to `COc1ncc(-c2ccc3nccc(-c4ccnnc4)c3c2)cc1NS(=O)(=O)c1ccc(F)cc1F` [OMIPALISIB], for which the Kd (in experiment [1]; in experiment [2]; in experiment [6]; in experiment [3]; in [4]; on Ephrin type-B receptor 3) was > 30 µM (inactive) each time. For the same compound, the Kd (at Scaffold protein ILK; at Activin receptor type-1B; in [5]) was > 30 µM (inactive) in each case.

Turning to `Cc1nc(Nc2n[nH]c3c2CN(C(=O)N[C@H](CN(C)C)c2ccccc2)C3(C)C)c2sccc2n1` [PF-03758309], the Kd in [1] is > 30 µM (inactive); in [2], > 30 µM (inactive); in experiment [6], > 30 µM (inactive); in experiment [3], > 30 µM (inactive); in experiment [4] it was 2.08 µM (active); at Ephrin type-B receptor 3 it was > 30 µM (inactive). Further, the results for the Kd (on Activin receptor type-1B; in [5]) were > 30 µM (inactive) and 30 µM (active), respectively.

Turning to `CO[C@H]1C[C@@H]2CC[C@@H](C)[C@@](O)(O2)C(=O)C(=O)N2CCCC[C@H]2C(=O)O[C@H]([C@H](C)C[C@@H]2CC[C@@H](OP(C)(C)=O)[C@H](OC)C2)CC(=O)[C@H](C)/C=C(\C)[C@@H](O)[C@@H](OC)C(=O)[C@H](C)C[C@H](C)/C=C/C=C/C=C/1C` [RIDAFOROLIMUS], the Kd (in experiment [1]; in experiment [2]; in experiment [6]; in experiment [3]; in experiment [4]; at Ephrin type-B receptor 3) was > 30 µM (inactive) throughout. Moreover, the Kd (on Scaffold protein ILK; on Activin receptor type-1B; in [5]) was > 30 µM (inactive) in each case.

`O=C(NOCCO)c1cc(CN2OCCCC2=O)c(F)c(F)c1Nc1ccc(I)cc1F` [RO-4987655]: at Scaffold protein ILK, the Kd was > 30 µM (inactive).

For `O=C1NC(=O)[C@@H](c2cn3c4c(cccc24)CCC3)[C@@H]1c1c[nH]c2ccccc12` [TIVANTINIB], the Kd (in experiment [1]; in [2]; in [6]; in [3]; in [4]; at Ephrin type-B receptor 3) was > 30 µM (inactive) in each case. The Kd (at Scaffold protein ILK; on Activin receptor type-1B; in experiment [5]) was > 30 µM (inactive) throughout.
